Assays:
[1] = target: T1, α4β2 nAChR modulator site (Homo sapiens, UniProt P17787+P43681); assay: [3H]-POB binding, membrane enriched fractions from human cortex; conditions: saturation binding, human frontal cortex membranes, 4° C.
T1 construct: membrane enriched fractions from human cortex (ABS Inc., Wilmington, Del.); tissue ABS Inc., Wilmington, Del; host or cells: human cortex (frontal cortex) membrane enriched fractions
Method: [^3H]-POB ([^3H]-3-(5-(pyridin-3-yl)-1,2,4-oxadiazol-3-yl)benzonitrile) binding to a α4β2 nAChR modulator site was determined using membrane enriched fractions from human cortex (ABS Inc., Wilmington, Del.). Pellets were thawed at 4° C., washed and resuspended with a Polytron at a setting of 7 in 30 volumes of BSS-Tris buffer (120 mM NaCl, 5 mM KCl, 2 mM CaCl2, 2 mM MgCl2, and 50 mM Tris-Cl, pH 7.4, 4° C.). For saturation binding isotherms, eight concentrations of [^3H]-POB (10-250 nM) in quadruplicate and homogenate containing 100-200 μg of protein were incubated in a final volume of 500 μL for 75 minutes at 4° C. Non-specific binding was determined in the presence of 30 μM unlabeled 3-(5-(pyridin-3-yl)-1,2,4-oxadiazol-3-yl)benzonitrile. Under these conditions, saturable binding of [^3H]-POB binding was measured in membrane enriched fractions from human frontal cortex (FIG. 10). […]
For use in concentration-inhibition assays, seven log-dilution concentrations of test compounds containing 100-200 μg of protein, and 50 nM [^3H]-POB (16.4 Ci/mmol) were incubated in a final volume of 500 μL for 75 minutes at 4° C. in duplicate. Non-specific binding was determined in the presence of 30 μM 3-(5-(pyridin-3-yl)-1,2,4-oxadiazol-3-yl)benzonitrile. […] IC50 values were determined by nonlinear regression in Microsoft® Excel or Assay Explorer. […]

[2] = target: T2, human α4β2 nicotinic acetylcholine receptor (Homo sapiens, UniProt P17787+P43681); assay: Calcium flux (FLIPR) assay, HEK-293 cells expressing human α4β2 nAChR; type: cell-based; conditions: for calcium response of partial agonist alone: without PAM; for calcium response of partial agonist co-applied with PAM: co-applied with PAM Compound 1, α4β2 nAChRs
T2 construct: expressed in transfected cells
Method: (§1) Experimental Procedure: Human embryonic kidney (HEK) 293 cells stably expressing human α4β2 or α3β4 combinations are grown to confluency in 162 cm^2 tissue culture flasks in DMEM media supplemented with 10% FBS and 25 μg/ml zeocin and 200 μg/ml hygromycin B. IMR-32 neuroblastoma cells (ATCC) are grown to confluency in 162 cm^2 tissue culture flasks in minimum essential media supplemented with 10% FBS and 1 mM sodium pyruvate, 1% non-essential amino acids and 1% antibiotic-antimycotic. The cells are then dissociated using cell dissociation buffer and 100-150 μl per well of 3.5×10^5 cells/ml cell suspension (˜50,000-100,000 cells/well) was plated into 96-well black plates (poly-D-lysine precoated) with clear bottom and maintained for 24-48 hours in a tissue culture incubator at 37° C. under an atmosphere of 5% CO2: 95% air. Other clonal cell lines or primary cell cultures that express endogenous α4* nicotinic receptors may also be used in this assay. Calcium flux was measured using calcium-3 assay kit (Molecular Devices, Sunnyvale, Calif.) or fluo-4 (Invitrogen). A stock solution of the dye was prepared by dissolving each vial supplied by the vendor in Hank's balanced salt solution buffer (HBSS) or 150 mM NMDG, 20 mM CaCl2 containing 10 mM HEPES, The stock solution was diluted 1:20 using the same buffer before use. The growth media was removed from the cells. The cells were loaded with 100 μl of the dye per well and incubated at room temperature for up to one hour for HEK 293 clonal stable cell lines or 30 minutes-45 minutes at 37° C. for IMR-32 cells Fluorescence measurements were read simultaneously from all the wells by a Fluorometic Imaging Plate Reader (FLIPR) at an excitation wavelength of 480 nm and an emission wavelength of 520 nm. Baseline fluorescence was measured for the first 6 seconds at which 3× concentrations of modulator/test compounds were added to the cell plate at 50 μl and incubated for five minutes. The fluorescence intensity was captured every second for the first 1 minute followed by every 5 seconds for an additional 4 minutes. This procedure was followed by 50 μl of 4× concentration of agonist and readings were taken for a period of 3-5 minutes as described above. Data was normalized to maximal responses and plotted as a function of concentration. The concentration dependence of changes fluorescence responses was fitted by nonlinear regression analysis (GraphPad Prism, San Diego, Calif.) to obtain EC50 values.
The positive allosteric modulator effects on α4β2 nAChRs exemplified by 3-(3-pyridin-3-yl-1,2,4-oxadiazol-5-yl)benzonitrile (Compound 1) and 3,5-di(pyridin-3-yl)-1,2,4-oxadiazole (Compound 2) can be identified by measuring their potentiating effect to fluorescence changes in intracellular calcium using a fluorimetric plate reader. The potentiating effect of an α4β2 modulator on α4β2 receptor can also be illustrated by concentration responses to α4β2 agonists, for example 5-[(2R)-azetidin-2-ylmethoxy]-2-chloropyridine (Compound A) and (3R)-1-pyridin-3-ylpyrrolidin-3-amine (Compound B), in presence of a fixed concentration of PAM. […] In addition to compound A and B, other known nicotinic agonists can be left-shifted in presence of α4β2 PAM such as […]. […] This could lead to preferential effects of the agonist at the desired subtype, viz., α4β2, without effects at other nicotinic receptor subtypes and thus enhancing in vivo selectivity of the agonist.
The activity (allosteric effects—potentiation of fluorescence responses) ranges are defined as follows; “a” denotes as activity range from 200-400%, “b” denotes an activity range from 150-200%, “c” denotes an activity range from 120-150% and “d” denotes an activity range 90-120%. […]

[3] = target: T3, human α3β4 nicotinic acetylcholine receptor (Homo sapiens, UniProt P30926+P32297); assay: Calcium flux (FLIPR) assay, HEK-293 cells expressing human α3β4 nAChR; type: cell-based; conditions: for calcium response of partial agonist co-applied with PAM: co-applied with PAM Compound 1, α3β4 nAChRs
T3 construct: expressed in transfected cells
Method: as §1, with “A stock solution of the dye was prepared by dissolving each vial supplied by the vendor in Hank's balanced salt solution buffer (HBSS) or 150 mM NMDG, 20 mM CaCl2 containing 10 mM HEPES, The stock solution was diluted 1:20 using the same buffer before use. The growth media was removed from the cells.” left out, “Data was normalized to maximal responses and plotted as a function of concentration.” left out, “values. […]” for “values.”

[4] = system: nerve injury induced mechanical allodynia; assay: Chung model of neuropathic pain (L5-L6 spinal nerve ligation, tactile allodynia, von Frey); type: in vivo; conditions: rat; for mechanical paw withdrawal threshold (PWT): i.p.
Method: Animals: Male Sprague-Dawley rats (Charles River, Wilmington, Mass.) weighing 120-150 grams at time of surgery were utilized. These animals were group housed in AAALAC approved facilities at Abbott Laboratories in a temperature-regulated environment with lights on between 0700 and 2000 hours. Food and water was available ad libitum except during testing. All animal handling and experimental protocols were approved by an institutional animal care and use committee (IACUC). All experiments were performed during the light cycle.
Chemicals: 5-[(2R)-Azetidin-2-ylmethoxy]-2-chloropyridine (Compound A, 1-100 nmol/kg) and 3-(3-pyridin-3-yl)-1,2,4-oxadiazol-5-yl)benzonitrile (α4β2 PAM Compound 1, 1-35 μmol/kg, i.p.) was used. Compound A and D was prepared in saline and injected in solution in a volume of 2 ml/kg body weight 30 minutes before behavioral evaluation. Compound 1,3-(3-(pyridin-3-yl)-1,2,4-oxadiazol-5-yl)benzonitrile, was prepared in 30% hydroxybetacyclodextrin and injected in solution in a volume of 4 ml/kg body weight immediately before Compound A. For studies with Compound D, the doses tested ranged from 0.3-30 μmol/kg i.p.
Experimental Procedure: To produce neuropathic pain, tight ligation of the L5-L6 spinal nerves was performed. As previously described in detail by Kim and Chung (Kim S H and Chung J M (1992), Pain 50: 355), following sterilization procedures, a 1.5 cm incision was made dorsal to the lumbosacral plexus. The paraspinal muscles (left side) were separated from the spinous processes, the L5 and L6 spinal nerves isolated, and tightly ligated with 3-0 silk thread. Following hemostasis, the wound was sutured and coated with antibiotic ointment. The rats were allowed to recover and then placed in a cage with soft bedding for 7-14 days before behavioral testing for mechanical allodynia.
Tactile allodynia was measured using calibrated (force; g) von Frey filaments (Stoelting, Wood Dale, Ill.). Briefly, rats were placed into individual plexiglass containers and allowed to acclimate for 15-20 minutes before testing. Withdrawal threshold was determined by increasing and decreasing stimulus intensity and estimated using a Dixon non-parametric test (Chaplan et al., 1994; Chaplan S R, Bach F W, Pogrel J W, Chung J M and Yaksh T L (1994) J Neurosci Methods 53:55-63). Only rats with threshold scores ≦4.5 g were considered allodynic and utilized in further testing. A percent of maximal possible effect (% M.P.E.) of the tested compounds was calculated according to the formula: ([post-drug threshold]−[baseline threshold])/([maximum threshold]−[baseline threshold])×100%, where maximum threshold was equal to 15 g.
Statistical analysis: Analysis of the in vivo data was carried out using analysis of variance. Where appropriate, Bonferroni's Multiple Comparison Test was used for post-hoc analysis. The level of significance was set at p less than 0.05. Data are presented as mean ±S.E.M.

emesis = assay: Emesis in ferrets; type: in vivo; conditions: ferret
Method: Fasted male ferrets (Marshall BioResources, North Rose, N.Y.) weighing between 1.0 and 1.7 kg are used to determine the emetic effects. α4β2 PAM (Compound 1) was administered first and thirty minutes later, Compound A was administered at various doses. […] The percentage of animals that experienced emesis at a given dose was recorded.

[5] = Compound 1 3.5 μmol/kg with various doses of Compound A

T2 sequence (P43681 29-627 limits assumed): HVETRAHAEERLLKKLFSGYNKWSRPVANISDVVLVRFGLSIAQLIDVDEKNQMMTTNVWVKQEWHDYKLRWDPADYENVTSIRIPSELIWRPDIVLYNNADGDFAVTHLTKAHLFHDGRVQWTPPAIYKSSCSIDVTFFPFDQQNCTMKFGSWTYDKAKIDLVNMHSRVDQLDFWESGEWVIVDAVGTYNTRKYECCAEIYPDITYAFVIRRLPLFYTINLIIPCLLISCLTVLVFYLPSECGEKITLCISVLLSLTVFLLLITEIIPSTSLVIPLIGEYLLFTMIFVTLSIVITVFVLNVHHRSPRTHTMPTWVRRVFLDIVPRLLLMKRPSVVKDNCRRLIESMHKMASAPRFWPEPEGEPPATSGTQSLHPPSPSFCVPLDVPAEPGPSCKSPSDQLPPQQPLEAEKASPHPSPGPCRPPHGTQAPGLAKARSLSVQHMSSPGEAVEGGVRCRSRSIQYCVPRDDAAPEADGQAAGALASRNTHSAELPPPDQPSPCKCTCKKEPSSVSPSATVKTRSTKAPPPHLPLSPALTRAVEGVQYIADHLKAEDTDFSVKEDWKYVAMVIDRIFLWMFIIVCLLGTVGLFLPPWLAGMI
T2 sequence (P17787 26-502): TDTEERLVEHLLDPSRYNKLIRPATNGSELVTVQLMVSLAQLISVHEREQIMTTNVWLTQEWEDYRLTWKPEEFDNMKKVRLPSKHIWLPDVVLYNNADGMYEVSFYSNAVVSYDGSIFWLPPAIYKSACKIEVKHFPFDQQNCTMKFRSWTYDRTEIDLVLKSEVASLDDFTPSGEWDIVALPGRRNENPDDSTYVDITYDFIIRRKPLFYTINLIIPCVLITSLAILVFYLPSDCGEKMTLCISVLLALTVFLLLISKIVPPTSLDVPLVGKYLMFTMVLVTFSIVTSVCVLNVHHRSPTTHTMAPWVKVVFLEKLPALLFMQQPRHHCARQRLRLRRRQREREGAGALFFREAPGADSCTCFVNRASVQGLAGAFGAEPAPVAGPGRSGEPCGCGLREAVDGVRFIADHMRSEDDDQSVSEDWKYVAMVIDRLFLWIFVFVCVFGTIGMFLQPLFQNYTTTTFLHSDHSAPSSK
T3 sequence (P32297 32-505): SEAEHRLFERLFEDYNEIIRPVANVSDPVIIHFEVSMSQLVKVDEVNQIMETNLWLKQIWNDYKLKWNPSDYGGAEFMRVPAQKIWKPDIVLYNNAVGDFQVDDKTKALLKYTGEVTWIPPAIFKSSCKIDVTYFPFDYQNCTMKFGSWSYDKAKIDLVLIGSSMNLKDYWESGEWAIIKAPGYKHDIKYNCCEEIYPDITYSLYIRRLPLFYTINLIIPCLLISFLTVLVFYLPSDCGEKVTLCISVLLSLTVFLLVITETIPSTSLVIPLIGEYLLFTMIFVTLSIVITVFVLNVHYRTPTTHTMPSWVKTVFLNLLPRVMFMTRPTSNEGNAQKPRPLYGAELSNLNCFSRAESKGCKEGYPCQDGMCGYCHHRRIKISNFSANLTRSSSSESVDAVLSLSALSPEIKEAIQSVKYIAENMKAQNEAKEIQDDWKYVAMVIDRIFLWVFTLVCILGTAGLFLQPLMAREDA
T3 sequence (P30926 22-498): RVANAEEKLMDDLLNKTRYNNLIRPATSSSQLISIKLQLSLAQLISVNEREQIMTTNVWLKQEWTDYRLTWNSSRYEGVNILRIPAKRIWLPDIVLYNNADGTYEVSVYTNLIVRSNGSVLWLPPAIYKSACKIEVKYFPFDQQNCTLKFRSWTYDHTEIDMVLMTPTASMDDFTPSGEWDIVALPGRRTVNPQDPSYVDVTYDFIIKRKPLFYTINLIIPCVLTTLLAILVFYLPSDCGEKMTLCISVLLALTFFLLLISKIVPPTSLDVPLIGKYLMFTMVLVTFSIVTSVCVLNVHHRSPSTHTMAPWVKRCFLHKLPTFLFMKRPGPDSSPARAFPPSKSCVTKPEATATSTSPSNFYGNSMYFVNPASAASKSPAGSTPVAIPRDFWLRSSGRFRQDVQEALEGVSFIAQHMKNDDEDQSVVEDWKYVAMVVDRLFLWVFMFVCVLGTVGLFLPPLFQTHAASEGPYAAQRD
T1 sequence (P43681 29-627 limits assumed): as the sequence (P43681 29-627 limits assumed) above
T1 sequence (P17787 26-502): as the sequence (P17787 26-502) above

[3H]c1cncc(-c2nc(-c3cccc(C#N)c3)no2)c1 [Example 135, [^3H]-3-(5-(pyridin-3-yl)-1,2,4-oxadiazol-3-yl)benzonitrile]
Bmax [1]: 2900±500 fmol/mg protein
Kd [1]: 0.06 ± 0.016 µM

c1ccc2ncc(N3C[C@@H]4CN[C@@H]4C3)cc2c1 [Compound D, (1S,5S)-3-(3,6-diaza-bicyclo[3.2.0]hept-3-yl)-quinoline]
calcium response of partial agonist alone [2]: does not evoke a response
calcium response of partial agonist co-applied with PAM [2]: evoked robust responses
calcium response of partial agonist co-applied with PAM [3]: not at α3β4 nAChRs
efficacy in neuropathic pain, administered alone ([4]; alone): ineffective in reversing neuropathic pain
efficacy in neuropathic pain, co-dosed with α4β2 PAM ([4]; co-dosed with Compound 1): significant relief of neuropathic pain

N#Cc1cccc(-c2nc(-c3cccnc3)no2)c1 [Example 1, 3-(3-(pyridin-3-yl)-1,2,4-oxadiazol-5-yl)benzonitrile]
Activity (allosteric effects—potentiation of fluorescence responses) ([2]; α4β2 positive allosteric modulation, calcium fluorescence (FLIPR)): a (“a” denotes as activity range from 200-400%)
effect of PAM on concentration responses to the agonists ([3]; cells expressing α3β4, agonists Compound A and Compound B): unable to affect the concentration responses to the agonists
mechanical paw withdrawal threshold (PWT) ([4]; 10 mg/kg, alone): 3.3 ± 0.4 g
shift of neuropathic pain dose response curve of Compound A [4, 5]: left-shifting the dose response curve of Compound A
efficacy in neuropathic pain, administered alone ([4]; alone): ineffective
shift of emesis dose response curve of Compound A (emesis; [5]): does not shift the dose response curve of Compound A
emesis (emesis; alone): does not cause emesis

Cc1ncccc1OC[C@@H]1CCCN1 [Compound C, 2-methyl-3-(2-(S)-pyrrolidinylmethoxy)pyridine, reference compound]
calcium response of partial agonist alone [2]: does not evoke a calcium response
calcium response of partial agonist co-applied with PAM [2]: evoked robust responses
calcium response of partial agonist co-applied with PAM [3]: not at α3β4 nAChRs

Clc1ccc(OC[C@H]2CCN2)cn1 [Compound A, 5-[(2R)-azetidin-2-ylmethoxy]-2-chloropyridine]
efficacy in neuropathic pain ([4]; 1 nmol/kg, alone): ineffective
mechanical paw withdrawal threshold (PWT) ([4]; 0.03 μmol/kg, alone): 5.6 ± 0.3 g
efficacy in neuropathic pain ([4]; Compound A 1 nmol/kg combined with varying doses of PAM Compound 1): dose-dependent increase in efficacy

— patent US8486979B2, “1,2,4 oxadiazole compounds and methods of use thereof” (AbbVie Inc., priority 2006, dated 2013)
